In the NIST ThermoML archive (doi:10.1016/j.jct.2017.01.016):
Numbers after ± are expanded uncertainties.

Experiment: xn = mol fraction of the nth substance listed
Conditions: 101 kPa, Liquid; for viscosity: Capillary tube (Ostwald / Ubbelohde) method; for speed of sound: Frequency=3 MHz, Linear variable-path acoustic interferometer

## C1COCCO1 [1,4-dioxane] + c1ccccc1
293.15 K, x1 = 0.0713
  viscosity: 0.6955 ± 0.015 mPa·s
  speed of sound: 1329.8 ± 1.7 m/s
293.15 K, x1 = 0.1403
  viscosity: 0.7421 ± 0.015 mPa·s
  speed of sound: 1334.5 ± 1.7 m/s
293.15 K, x1 = 0.2123
  viscosity: 0.7905 ± 0.017 mPa·s
  speed of sound: 1339.4 ± 1.7 m/s
293.15 K, x1 = 0.2809
  viscosity: 0.8364 ± 0.017 mPa·s
  speed of sound: 1343.6 ± 1.7 m/s
293.15 K, x1 = 0.3528
  viscosity: 0.8842 ± 0.018 mPa·s
  speed of sound: 1347.9 ± 1.7 m/s
293.15 K, x1 = 0.4195
  viscosity: 0.9283 ± 0.019 mPa·s
  speed of sound: 1351.5 ± 1.7 m/s
293.15 K, x1 = 0.5037
  viscosity: 0.9838 ± 0.021 mPa·s
  speed of sound: 1355.8 ± 1.7 m/s
293.15 K, x1 = 0.58
  viscosity: 1.034 ± 0.022 mPa·s
  speed of sound: 1359.2 ± 1.7 m/s
293.15 K, x1 = 0.6504
  viscosity: 1.08 ± 0.023 mPa·s
  speed of sound: 1362.2 ± 1.7 m/s
293.15 K, x1 = 0.7197
  viscosity: 1.125 ± 0.023 mPa·s
  speed of sound: 1364.2 ± 1.7 m/s
293.15 K, x1 = 0.7822
  viscosity: 1.165 ± 0.024 mPa·s
  speed of sound: 1365.4 ± 1.7 m/s
293.15 K, x1 = 0.8561
  viscosity: 1.213 ± 0.025 mPa·s
  speed of sound: 1366.9 ± 1.7 m/s
293.15 K, x1 = 0.9287
  viscosity: 1.26 ± 0.026 mPa·s
  speed of sound: 1367.4 ± 1.7 m/s
293.15 K, x1 = 1
  viscosity: 1.306 ± 0.027 mPa·s
  speed of sound: 1367.2 ± 1.7 m/s
298.15 K, x1 = 0.0713
  viscosity: 0.6485 ± 0.014 mPa·s
  speed of sound: 1304 ± 1.6 m/s
298.15 K, x1 = 0.1403
  viscosity: 0.6905 ± 0.014 mPa·s
  speed of sound: 1308.1 ± 1.6 m/s
298.15 K, x1 = 0.2123
  viscosity: 0.7339 ± 0.015 mPa·s
  speed of sound: 1312.5 ± 1.6 m/s
298.15 K, x1 = 0.2809
  viscosity: 0.775 ± 0.016 mPa·s
  speed of sound: 1316.5 ± 1.6 m/s
298.15 K, x1 = 0.3528
  viscosity: 0.8179 ± 0.017 mPa·s
  speed of sound: 1320.5 ± 1.7 m/s
298.15 K, x1 = 0.4195
  viscosity: 0.8574 ± 0.018 mPa·s
  speed of sound: 1324 ± 1.7 m/s
298.15 K, x1 = 0.5037
  viscosity: 0.907 ± 0.019 mPa·s
  speed of sound: 1328.2 ± 1.7 m/s
298.15 K, x1 = 0.58
  viscosity: 0.9517 ± 0.02 mPa·s
  speed of sound: 1332 ± 1.7 m/s
298.15 K, x1 = 0.6504
  viscosity: 0.9928 ± 0.021 mPa·s
  speed of sound: 1335.1 ± 1.7 m/s
298.15 K, x1 = 0.7197
  viscosity: 1.033 ± 0.022 mPa·s
  speed of sound: 1337.5 ± 1.7 m/s
298.15 K, x1 = 0.7822
  viscosity: 1.069 ± 0.022 mPa·s
  speed of sound: 1339.8 ± 1.7 m/s
298.15 K, x1 = 0.8561
  viscosity: 1.112 ± 0.023 mPa·s
  speed of sound: 1342 ± 1.7 m/s
298.15 K, x1 = 0.9287
  viscosity: 1.154 ± 0.024 mPa·s
  speed of sound: 1343.7 ± 1.7 m/s
298.15 K, x1 = 1
  viscosity: 1.195 ± 0.025 mPa·s
  speed of sound: 1344.7 ± 1.7 m/s
303.15 K, x1 = 0.0713
  viscosity: 0.6068 ± 0.013 mPa·s
  speed of sound: 1279.4 ± 1.6 m/s
303.15 K, x1 = 0.1403
  viscosity: 0.6446 ± 0.013 mPa·s
  speed of sound: 1283 ± 1.6 m/s
303.15 K, x1 = 0.2123
  viscosity: 0.6836 ± 0.014 mPa·s
  speed of sound: 1287 ± 1.6 m/s
303.15 K, x1 = 0.2809
  viscosity: 0.7206 ± 0.015 mPa·s
  speed of sound: 1290.6 ± 1.6 m/s
303.15 K, x1 = 0.3528
  viscosity: 0.7591 ± 0.016 mPa·s
  speed of sound: 1294.2 ± 1.6 m/s
303.15 K, x1 = 0.4195
  viscosity: 0.7946 ± 0.017 mPa·s
  speed of sound: 1297.6 ± 1.6 m/s
303.15 K, x1 = 0.5037
  viscosity: 0.839 ± 0.017 mPa·s
  speed of sound: 1301.8 ± 1.6 m/s
303.15 K, x1 = 0.58
  viscosity: 0.879 ± 0.018 mPa·s
  speed of sound: 1305.7 ± 1.6 m/s
303.15 K, x1 = 0.6504
  viscosity: 0.9157 ± 0.019 mPa·s
  speed of sound: 1309.2 ± 1.6 m/s
303.15 K, x1 = 0.7197
  viscosity: 0.9517 ± 0.02 mPa·s
  speed of sound: 1312.3 ± 1.7 m/s
303.15 K, x1 = 0.7822
  viscosity: 0.9841 ± 0.021 mPa·s
  speed of sound: 1315.1 ± 1.7 m/s
303.15 K, x1 = 0.8561
  viscosity: 1.022 ± 0.021 mPa·s
  speed of sound: 1318.2 ± 1.7 m/s
303.15 K, x1 = 0.9287
  viscosity: 1.059 ± 0.022 mPa·s
  speed of sound: 1320.8 ± 1.7 m/s
303.15 K, x1 = 1
  viscosity: 1.096 ± 0.023 mPa·s
  speed of sound: 1323.1 ± 1.7 m/s
308.15 K, x1 = 0.0713
  viscosity: 0.5686 ± 0.012 mPa·s
  speed of sound: 1255.4 ± 1.6 m/s
308.15 K, x1 = 0.1403
  viscosity: 0.6033 ± 0.013 mPa·s
  speed of sound: 1258.7 ± 1.6 m/s
308.15 K, x1 = 0.2123
  viscosity: 0.6392 ± 0.013 mPa·s
  speed of sound: 1262 ± 1.6 m/s
308.15 K, x1 = 0.2809
  viscosity: 0.673 ± 0.014 mPa·s
  speed of sound: 1265.1 ± 1.6 m/s
308.15 K, x1 = 0.3528
  viscosity: 0.7082 ± 0.015 mPa·s
  speed of sound: 1268.7 ± 1.6 m/s
308.15 K, x1 = 0.4195
  viscosity: 0.7406 ± 0.015 mPa·s
  speed of sound: 1272 ± 1.6 m/s
308.15 K, x1 = 0.5037
  viscosity: 0.7812 ± 0.016 mPa·s
  speed of sound: 1276.1 ± 1.6 m/s
308.15 K, x1 = 0.58
  viscosity: 0.8176 ± 0.017 mPa·s
  speed of sound: 1280.2 ± 1.6 m/s
308.15 K, x1 = 0.6504
  viscosity: 0.851 ± 0.018 mPa·s
  speed of sound: 1284 ± 1.6 m/s
308.15 K, x1 = 0.7197
  viscosity: 0.8837 ± 0.018 mPa·s
  speed of sound: 1287.4 ± 1.6 m/s
308.15 K, x1 = 0.7822
  viscosity: 0.9131 ± 0.019 mPa·s
  speed of sound: 1290.8 ± 1.6 m/s
308.15 K, x1 = 0.8561
  viscosity: 0.9477 ± 0.02 mPa·s
  speed of sound: 1294.5 ± 1.6 m/s
308.15 K, x1 = 0.9287
  viscosity: 0.9815 ± 0.02 mPa·s
  speed of sound: 1297.9 ± 1.6 m/s
308.15 K, x1 = 1
  viscosity: 1.014 ± 0.021 mPa·s
  speed of sound: 1301.2 ± 1.7 m/s
313.15 K, x1 = 0.0713
  viscosity: 0.532 ± 0.011 mPa·s
  speed of sound: 1231.7 ± 1.6 m/s
313.15 K, x1 = 0.1403
  viscosity: 0.5644 ± 0.012 mPa·s
  speed of sound: 1234.3 ± 1.6 m/s
313.15 K, x1 = 0.2123
  viscosity: 0.5979 ± 0.013 mPa·s
  speed of sound: 1237.2 ± 1.6 m/s
313.15 K, x1 = 0.2809
  viscosity: 0.6294 ± 0.013 mPa·s
  speed of sound: 1240.5 ± 1.6 m/s
313.15 K, x1 = 0.3528
  viscosity: 0.6621 ± 0.014 mPa·s
  speed of sound: 1244 ± 1.6 m/s
313.15 K, x1 = 0.4195
  viscosity: 0.6921 ± 0.015 mPa·s
  speed of sound: 1247.1 ± 1.6 m/s
313.15 K, x1 = 0.5037
  viscosity: 0.7297 ± 0.015 mPa·s
  speed of sound: 1251.3 ± 1.6 m/s
313.15 K, x1 = 0.58
  viscosity: 0.7634 ± 0.016 mPa·s
  speed of sound: 1255.5 ± 1.6 m/s
313.15 K, x1 = 0.6504
  viscosity: 0.7943 ± 0.017 mPa·s
  speed of sound: 1259.4 ± 1.6 m/s
313.15 K, x1 = 0.7197
  viscosity: 0.8245 ± 0.017 mPa·s
  speed of sound: 1263.5 ± 1.6 m/s
313.15 K, x1 = 0.7822
  viscosity: 0.8516 ± 0.018 mPa·s
  speed of sound: 1266.8 ± 1.6 m/s
313.15 K, x1 = 0.8561
  viscosity: 0.8835 ± 0.018 mPa·s
  speed of sound: 1271.2 ± 1.6 m/s
313.15 K, x1 = 0.9287
  viscosity: 0.9146 ± 0.019 mPa·s
  speed of sound: 1275.3 ± 1.6 m/s
313.15 K, x1 = 1
  viscosity: 0.945 ± 0.02 mPa·s
  speed of sound: 1279.7 ± 1.6 m/s
318.15 K, x1 = 0.0713
  viscosity: 0.4993 ± 0.01 mPa·s
  speed of sound: 1209.6 ± 1.6 m/s
318.15 K, x1 = 0.1403
  viscosity: 0.5297 ± 0.011 mPa·s
  speed of sound: 1211.9 ± 1.6 m/s
318.15 K, x1 = 0.2123
  viscosity: 0.5611 ± 0.012 mPa·s
  speed of sound: 1214.5 ± 1.6 m/s
318.15 K, x1 = 0.2809
  viscosity: 0.5906 ± 0.012 mPa·s
  speed of sound: 1217.2 ± 1.6 m/s
318.15 K, x1 = 0.3528
  viscosity: 0.6211 ± 0.013 mPa·s
  speed of sound: 1220.5 ± 1.6 m/s
318.15 K, x1 = 0.4195
  viscosity: 0.6492 ± 0.014 mPa·s
  speed of sound: 1223.6 ± 1.6 m/s
318.15 K, x1 = 0.5037
  viscosity: 0.6842 ± 0.014 mPa·s
  speed of sound: 1227.9 ± 1.6 m/s
318.15 K, x1 = 0.58
  viscosity: 0.7156 ± 0.015 mPa·s
  speed of sound: 1232.1 ± 1.6 m/s
318.15 K, x1 = 0.6504
  viscosity: 0.7443 ± 0.015 mPa·s
  speed of sound: 1236 ± 1.6 m/s
318.15 K, x1 = 0.7197
  viscosity: 0.7724 ± 0.016 mPa·s
  speed of sound: 1240.1 ± 1.6 m/s
318.15 K, x1 = 0.7822
  viscosity: 0.7975 ± 0.017 mPa·s
  speed of sound: 1243.9 ± 1.6 m/s
318.15 K, x1 = 0.8561
  viscosity: 0.8271 ± 0.017 mPa·s
  speed of sound: 1248.8 ± 1.6 m/s
318.15 K, x1 = 0.9287
  viscosity: 0.8559 ± 0.018 mPa·s
  speed of sound: 1253.6 ± 1.6 m/s
318.15 K, x1 = 1
  viscosity: 0.884 ± 0.018 mPa·s
  speed of sound: 1258.6 ± 1.6 m/s
